Data from patent US20210253518A1, “KINASE INHIBITOR” (NISSAN CHEMICAL CORPORATION, priority 2018, published 2021).

Test system: YAP protein
Experiment: Imaging analysis of nuclear translocation in SKOV3 cells
Format: cell-based, human
Conditions: 10 μM, 4 hr, ratio of fluorescence intensity nucleus/cytoplasm, no addition 6.15
Description: Compounds k-1:B-1, k-1:H-1, and k-1:J-1 were evaluated for nuclear translocation of YAP protein and TAZ protein. For the nuclear translocation, imaging analysis was performed using the human ovarian cancer cell line SKOV3 (manufactured by DS Pharma Biomedical Co., Ltd) and OperettaCLS (manufactured by PerkinElmer) described below. The compounds were added such that the final concentration of the test concentration of k-1:B-1, k-1:H-1, and k-1:J-1 was 10 μM.
Human ovarian cancer cell line SKOV3 cultured according to the protocol recommended by DS Pharma Biomedical Co., Ltd. was seeded on a 96-well plate (manufactured by PerkinElmer, CellCarrier-Ultra) at 15,000 cells/90 μL/well on the cycloolefin bottom surface, and cultured in a CO2 incubator (37° C., 5% CO2) for 1 day. After culturing, 10 μL of k-1:B-1, k-1:H-1, and k-1:J-1 solutions having a concentration of 100 μM and dissolved in DMSO was added. The cells were further cultured in a CO2 incubator at 37° C. for 4 hr. The medium was exchanged with 4% para-formaldehyde, and the cells were fixed by allowing to stand at room temperature for 10 min. The fixed cells were subjected to immunostaining with AlexaFluor® 647-labeled YAP antibody (manufactured by Cell Signaling Technology), anti-mouse TAZ (D-8) antibody (manufactured by SantaCruz), AlexaFluor® 555-labeled anti-mouse IgG antibody (manufactured by Thermo Fisher Scientific), according to the recommended protocol produced by Cell Signaling Technology, and the cell nucleus was further stained with 10 μg/mL Hoechst33342 solution.
Nine fields of view were imaged per well using a 20× objective lens of Operatta CLS. The cell nucleus region and the cytoplasm region were identified from the obtained fluorescence images by using the analysis software Harmony (manufactured by PerkinElmer), and AlexaFluor® 647 fluorescence intensity per unit area and the AlexaFluor® 555 fluorescence intensity per unit area in each region were extracted. The nuclear translocation was evaluated by calculating the ratio of the fluorescence intensity of the cell nucleus region to the fluorescence intensity of the cytoplasmic region from the extracted values. The value becomes greater than 1 as the YAP protein and TAZ protein transfer into the cell nucleus, and less than 1 when localized in the cytoplasm.
The specific compound used in the present invention was evaluated for the nuclear translocation of YAP protein and TAZ protein. For the nuclear translocation, imaging analysis was performed using the human ovarian cancer cell line SKOV3 (DS Pharma Biomedical Co., Ltd) and OperettaCLS (PerkinElmer) described below. The specific compound was added such that the final concentration of the test concentration of the compound used in the present invention was 10 μM.
Human ovarian cancer cell line SKOV3 cultured according to the protocol recommended by DS Pharma Biomedical Co., Ltd. was seeded on a 96-well plate (PerkinElmer, CellCarrier-Ultra) at 15,000 cells/90 μL/well on the cycloolefin bottom surface, and cultured in a CO2 incubator (37° C., 5% CO2) for 1 day. After culturing, a solution of the specific compound used in the present invention dissolved in DMSO was added. The cells were further cultured in a CO2 incubator at 37° C. for 4 hr, the medium was exchanged with 4% para-formaldehyde, and the cells were fixed by allowing to stand at room temperature for 10 min. The fixed cells were subjected to immunostaining with AlexaFluor® 647-labeled YAP antibody (Cell Signaling Technology), anti-mouse TAZ (D-8) antibody (SantaCruz), AlexaFluor® 555-labeled anti-mouse IgG antibody (Thermo Fisher Scientific), according to the recommended protocol produced by Cell Signaling Technology, and the cell nucleus was further stained with 10 μg/mL Hoechst33342 solution.
Nine fields of view were imaged per well using a 20× objective lens of Operatta CLS. […]

Compound	YAP nuclear translocation rate
CC/C(=N\NC(=O)NCc1cccc(O)c1)c1ccc(O)c(C)c1O [k-1:J-1]	7.92
CCC(=NNC(=O)CNc1ccccc1)c1ccc(O)c(C)c1O [k-1:H-1]	7.60
CC/C(=N\NC(=O)C(C)Nc1ccccc1)c1ccc(O)c(C)c1O (stereo not drawn) [k-1:B-1]	6.98
